The record followed here is BindingDB's records for doi:10.1021/bi990174x (University of Queensland, 1999).

In this experiment the target is T1, Dimer of Gag-Pol polyprotein [501-599,Q508K,L534I,L564I,C568A,C596A] (Human immunodeficiency virus 1, UniProt P03367, C568A/C596A/L534I/L564I/Q508K).
T1 construct: 501-599
Briefly: Protease Inhibition Assay. As to conditions: pH 6.5; 37 °C.

Each structure is given as a SMILES string. pKi: −log10 of the molar value.

As a reminder, the pKi is the negative decadic logarithm of the Ki, by convention in mol/L. The low end stands for a high Ki, the high end for a low Ki. In turn, `CCC(=O)N[C@H](C(=O)N[C@@H](Cc1ccc(O)cc1)[C@H](O)CN[C@H]1Cc2ccc(cc2)OCCCNC(=O)[C@H](C(C)CC)NC1=O)C(C)C` (stereo partly drawn) [(2S)-N-[(2S,3R)-4-{[(8S,11S)-8-[(2S)-butan-2-yl]-7,10-dioxo-2-oxa-6,9-diazabicyclo[11.2.2]heptadeca-1(15),13,16-trien-11-yl]amino}-3-hydroxy-1-(4-hydroxyphenyl)butan-2-yl]-3-methyl-2-propanamidobutanamide] showed a pKi of 8.52.
